Assay results as given in ChEMBL document CHEMBL3286280, “Importance of sphingosine kinase (SphK) as a target in developing cancer therapeutics and recent developments in the synthesis of novel SphK inhibitors” (J Med Chem, 2014).

Assays:
Sphingosine kinase 2 [1] = molecular target: T1, Sphingosine kinase 2 (Homo sapiens, UniProt Q9NRA0); experiment: Inhibition of SphK2 (unknown origin) using sphingosine and [gamma-32P]ATP as substrate
T1 sequence (Q9NRA0 whole entry): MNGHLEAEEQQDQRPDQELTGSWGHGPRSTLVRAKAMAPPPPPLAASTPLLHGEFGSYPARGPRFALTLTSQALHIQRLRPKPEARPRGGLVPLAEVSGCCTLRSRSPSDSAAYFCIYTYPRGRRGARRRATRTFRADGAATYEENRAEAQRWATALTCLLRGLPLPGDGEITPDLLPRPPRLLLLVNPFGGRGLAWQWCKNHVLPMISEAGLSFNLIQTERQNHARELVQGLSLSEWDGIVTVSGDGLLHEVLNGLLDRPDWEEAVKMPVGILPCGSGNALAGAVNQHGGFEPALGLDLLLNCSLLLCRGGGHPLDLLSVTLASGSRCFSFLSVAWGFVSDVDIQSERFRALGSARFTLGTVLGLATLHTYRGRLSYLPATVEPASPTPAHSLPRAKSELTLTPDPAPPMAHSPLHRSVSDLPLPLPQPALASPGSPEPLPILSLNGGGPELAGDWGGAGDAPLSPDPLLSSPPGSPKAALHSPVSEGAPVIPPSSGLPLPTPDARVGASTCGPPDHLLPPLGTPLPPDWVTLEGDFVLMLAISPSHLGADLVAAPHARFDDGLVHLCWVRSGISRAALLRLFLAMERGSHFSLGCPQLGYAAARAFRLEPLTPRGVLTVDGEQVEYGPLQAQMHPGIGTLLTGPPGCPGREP

Homo sapiens = species: Homo sapiens; experiment: Selectivity ratio for SphK1 (unknown origin) over SphK2 (unknown origin)
Sphingosine kinase 2 [2] = molecular target: T1, Sphingosine kinase 2; experiment: Inhibition of SphK2 (unknown origin)
Sphingosine kinase 2 [3] = molecular target: T1, Sphingosine kinase 2; experiment: Competitive inhibition of V5-His-tagged human SphK2 expressed in HEK293 cells assessed as S1P production using sphingosine and [gamma-32P]ATP as substrate by thin layer chromatography; assay type: cell-based

Row | Structure (SMILES) | Ki (Sphingosine kinase 2 [2]) [µM] | Selectivity ratio (Homo sapiens) | further results
1 | CCCCOc1ccc(CC/C=C2\SC(=O)N(CCN)C2=O)cc1 | – | – | Ki (Sphingosine kinase 2 [1]): 4.3 µM
2 | CCCCCCCCc1ccc(CCN2CCCC(O)C2)cc1 (stereo unspecified) | – | 6.1 | –
3 | CCCCCc1ccc(/C=C/[C@H](O)[C@@H](CO)NC)cc1 | – | – | IC50 (Sphingosine kinase 2 [3]): 10 µM
4 | CCCCCCCCc1ccc(CCN2CCC(O)CC2)cc1 | – | 15 | –

Now from value to compound, other results behind:

Row | Ki (Sphingosine kinase 2 [2]) [µM] | Structure (SMILES) | Selectivity ratio (Homo sapiens) | further results
5 | 27 | CCCCCCCCc1ccc(CC[C@@](N)(CO)COC)cc1 | – | –
6 | 12 | CCCCCCCCCCCCC/C=C/[C@@H](O)[C@H](CO)N(C)C [DIMETHYLSPINGOSINE] | – | –
